Experimental data: ChEMBL document CHEMBL4651402, “Screening of ~5500 FDA-approved drugs and clinical candidates for anti-SARS-CoV-2 activity” (2021)

System: SARS-CoV-2
Test: microbe, parasite or virus in culture
Details: Severe acute respiratory syndrome coronavirus 2, Vero C1008, 48 h

For COc1cc([C@@H]2Oc3cc([C@H]4Oc5cc(O)cc(O)c5C(=O)[C@@H]4O)ccc3O[C@H]2CO)ccc1O [SILYBIN B], the IC50 was > 20 µM and the IC50 (read-out: pIC50 (converted)) was > 20 µM.

With CCC(C)(C)C(=O)O[C@H]1C[C@@H](C)C=C2C=C[C@H](C)[C@H](CC[C@@H]3C[C@@H](O)CC(=O)O3)[C@H]21 [SIMVASTATIN] the IC50 was > 20 µM and the IC50 (read-out: pIC50 (converted)) was > 20 µM.

COc1cc(/C=C/C(=O)O)cc(OC)c1OC [SINAPIC ACID METHYL ETHER] was tested, and the IC50 was > 20 µM and the IC50 (read-out: pIC50 (converted)) was > 20 µM.

With COC1=C[C@@H]2[C@@H]3Cc4ccc(OC)c(O)c4[C@]2(CCN3C)CC1=O [SINOMENINE] the IC50 was > 20 µM and the IC50 (read-out: pIC50 (converted)) was > 20 µM.

With CCc1cc(/C(C)=N/OCc2ccc(C3CCCCC3)c(C(F)(F)F)c2)ccc1CN1CC(C(=O)O)C1 [SIPONIMOD] the IC50 was > 20 µM and the IC50 (read-out: pIC50 (converted)) was > 20 µM.

CO[C@H]1C[C@@H]2CC[C@@H](C)[C@@](O)(O2)C(=O)C(=O)N2CCCC[C@H]2C(=O)O[C@H]([C@H](C)C[C@@H]2CC[C@@H](O)[C@H](OC)C2)CC(=O)[C@H](C)/C=C(\C)[C@@H](O)[C@@H](OC)C(=O)[C@H](C)C[C@H](C)/C=C/C=C/C=C/1C [SIROLIMUS] was tested, and the IC50 was > 20 µM and the IC50 (read-out: pIC50 (converted)) was > 20 µM.

In the case of NCc1ccc2c(c1)nc(CN1C(=O)C3(CC3)c3ccc(F)cc31)n2CCCC(F)(F)F [SISUNATOVIR], the IC50 is reported as > 20 µM and the IC50 (read-out: pIC50 (converted)) is reported as > 20 µM.

With N[C@@H](CC(=O)N1CCn2c(nnc2C(F)(F)F)C1)Cc1cc(F)c(F)cc1F [SITAGLIPTIN] the IC50 was > 20 µM and the IC50 (read-out: pIC50 (converted)) was > 20 µM.

With Cc1cc2c(cc1CC(=O)c1sccc1S(=O)(=O)Nc1onc(C)c1Cl)OCO2 [SITAXENTAN] the IC50 was > 20 µM and the IC50 (read-out: pIC50 (converted)) was > 20 µM.

For COCCNCc1ccc(-c2cc3nccc(Oc4ccc(NC(=O)C5(C(=O)Nc6ccc(F)cc6)CC5)cc4F)c3s2)nc1 [SITRAVATINIB], the IC50 was > 20 µM and the IC50 (read-out: pIC50 (converted)) was > 20 µM.

In the case of COc1ccc2c(OC)c3ccoc3nc2c1OC [SKIMMIANINE], the IC50 is reported as > 20 µM and the IC50 (read-out: pIC50 (converted)) is reported as > 20 µM.

In the case of CC1(C)CC(=O)c2c(C(F)(F)F)nn(-c3ccc(C(N)=O)c(N[C@H]4CC[C@H](OC(=O)CN)CC4)c3)c2C1 [SNX 5422], the IC50 is reported as > 20 µM and the IC50 (read-out: pIC50 (converted)) is reported as > 20 µM.

O=C(O)c1cccc(-c2cccc(NCCNC[C@H](O)c3cccc(Cl)c3)c2)c1 [SOLABEGRON] was tested, and the IC50 was > 20 µM and the IC50 (read-out: pIC50 (converted)) was > 20 µM.

For CC1(C)CN(C(=O)c2ccc(-c3cccc4nc(NC(=O)C5CC5)nn34)cc2)C1 [SOLCITINIB], the IC50 was > 20 µM and the IC50 (read-out: pIC50 (converted)) was > 20 µM.

NS(=O)(=O)c1ccc(N2CCN(CC[C@@H]3OCCc4ccccc43)CC2)cc1 [SONEPIPRAZOLE] was tested, and the IC50 was > 20 µM and the IC50 (read-out: pIC50 (converted)) was > 20 µM.

CNC(=O)c1cc(Oc2ccc(NC(=O)Nc3ccc(Cl)c(C(F)(F)F)c3)cc2)ccn1 [SORAFENIB] was tested, and the IC50 was > 20 µM and the IC50 (read-out: pIC50 (converted)) was > 20 µM.

With COCCO[C@@H]1c2ccn3c(C)c(C)nc3c2N[C@H](c2ccccc2)[C@H]1O [SORAPRAZAN] the IC50 was > 20 µM and the IC50 (read-out: pIC50 (converted)) was > 20 µM.

For OC[C@@H](O)[C@@H](O)[C@H](O)[C@@H](O)CO [SORBITOL], the IC50 was > 20 µM and the IC50 (read-out: pIC50 (converted)) was > 20 µM.

O=c1[nH]c(=O)n([C@@H]2O[C@H](CO)[C@@H](O)[C@@H]2O)cc1/C=C/Br [SORIVUDINE] was tested, and the IC50 was > 20 µM and the IC50 (read-out: pIC50 (converted)) was > 20 µM.

With CCOc1ccc(Cc2cc([C@@H]3O[C@H](SC)[C@@H](O)[C@H](O)[C@H]3O)ccc2Cl)cc1 [SOTAGLIFLOZIN] the IC50 was > 20 µM and the IC50 (read-out: pIC50 (converted)) was > 20 µM.

CC(C)NCC(O)c1ccc(NS(C)(=O)=O)cc1 (stereo unspecified) [SOTALOL] was tested, and the IC50 was > 20 µM and the IC50 (read-out: pIC50 (converted)) was > 20 µM.

In the case of CC(C)NCC(O)c1ccc(O)c(NS(C)(=O)=O)c1 (stereo unspecified) [SOTERENOL], the IC50 is reported as > 20 µM and the IC50 (read-out: pIC50 (converted)) is reported as > 20 µM.

CN1CCN(c2nc(C3=C(c4c[nH]c5ccccc45)C(=O)NC3=O)c3ccccc3n2)CC1 [SOTRASTAURIN] was tested, and the IC50 was > 20 µM and the IC50 (read-out: pIC50 (converted)) was > 20 µM.

For CNC(=O)c1cc(Oc2ccc3nc(N[C@@H]4CCCC[C@H]4O)sc3c2)ccn1 [SOTULETINIB], the IC50 was > 20 µM and the IC50 (read-out: pIC50 (converted)) was > 20 µM.

In the case of C[C@@H]1CN(c2c(F)c(N)c3c(=O)c(C(=O)O)cn(C4CC4)c3c2F)C[C@H](C)N1 [SPARFLOXACIN], the IC50 is reported as > 20 µM and the IC50 (read-out: pIC50 (converted)) is reported as > 20 µM.

With C=CC(=O)Nc1cccc(Nc2nc(Nc3ccc(OCCOC)cc3)ncc2F)c1 [SPEBRUTINIB] the IC50 was > 20 µM and the IC50 (read-out: pIC50 (converted)) was > 20 µM.

In the case of CN[C@@H]1[C@H](O)[C@H](NC)[C@H]2O[C@@]3(O)C(=O)C[C@@H](C)O[C@H]3O[C@@H]2[C@H]1O [SPECTINOMYCIN], the IC50 is reported as > 20 µM and the IC50 (read-out: pIC50 (converted)) is reported as > 20 µM.

In the case of CC(=O)c1ccc2c(c1)C(=O)C1(CC1)O2 [SPIZOFURONE], the IC50 is reported as > 20 µM and the IC50 (read-out: pIC50 (converted)) is reported as > 20 µM.

In the case of O=C(O)c1ccccc1Nc1cccc(OCc2ccc3ccccc3n2)c1 [SR-2640], the IC50 is reported as > 20 µM and the IC50 (read-out: pIC50 (converted)) is reported as > 20 µM.

With O=C(Oc1ccc(Br)cc1)N1CCN2CCC1CC2 [SSR180711] the IC50 was > 20 µM and the IC50 (read-out: pIC50 (converted)) was > 20 µM.

For C[C@]12CCC(=O)C[C@@H]1CC[C@@H]1[C@@H]2CC[C@]2(C)[C@@H](O)CC[C@@H]12 [STANOLONE], the IC50 was > 20 µM and the IC50 (read-out: pIC50 (converted)) was > 20 µM.

CCCCCCCCCCCCCCCCCC(=O)O [STEARIC ACID] was tested, and the IC50 was > 20 µM and the IC50 (read-out: pIC50 (converted)) was > 20 µM.

With CC(C)(C)C(O)/C=C/c1ccc2c(c1)OCO2 (stereo unspecified) [STIRIPENTOL] the IC50 was > 20 µM and the IC50 (read-out: pIC50 (converted)) was > 20 µM.

For Cc1ccc2c(c1)[C@H]1CN(C)CC[C@H]1N2 [STOBADINE], the IC50 was > 20 µM and the IC50 (read-out: pIC50 (converted)) was > 20 µM.

In the case of CN[C@@H]1[C@H](O[C@H]2[C@H](O[C@H]3[C@H](O)[C@@H](O)[C@H](N=C(N)N)[C@@H](O)[C@@H]3N=C(N)N)O[C@@H](C)[C@]2(O)C=O)O[C@@H](CO)[C@H](O)[C@H]1O [STREPTOMYCIN], the IC50 is reported as > 20 µM and the IC50 (read-out: pIC50 (converted)) is reported as > 20 µM.

For O=C1C[C@@H]2OCC=C3CN4CC[C@]56c7ccccc7N1[C@H]5[C@H]2[C@H]3C[C@H]46 [STRYCHNINE], the IC50 was > 20 µM and the IC50 (read-out: pIC50 (converted)) was > 20 µM.

With NC(=O)OCC(O)c1ccccc1 (stereo unspecified) [STYRAMATE] the IC50 was > 20 µM and the IC50 (read-out: pIC50 (converted)) was > 20 µM.

For O=C(O)CCC(=O)O [SUCCINIC ACID], the IC50 was > 20 µM and the IC50 (read-out: pIC50 (converted)) was > 20 µM.

O=C(O)CCC(=O)Nc1ccc(S(=O)(=O)Nc2nccs2)cc1 [SUCCINYLSULFATHIAZOLE] was tested, and the IC50 was > 20 µM and the IC50 (read-out: pIC50 (converted)) was > 20 µM.

For OC[C@H]1O[C@@](CO)(O[C@H]2O[C@H](CO)[C@@H](O)[C@H](O)[C@H]2O)[C@@H](O)[C@@H]1O [SUCROSE], the IC50 was > 20 µM and the IC50 (read-out: pIC50 (converted)) was > 20 µM.

With CN1C(C(=O)Nc2nccs2)=C(O)c2ccccc2S1(=O)=O [SUDOXICAM] the IC50 was > 20 µM and the IC50 (read-out: pIC50 (converted)) was > 20 µM.

CC1(C)[C@H](C(=O)O)N2C(=O)C[C@H]2S1(=O)=O [SULBACTAM] was tested, and the IC50 was > 20 µM and the IC50 (read-out: pIC50 (converted)) was > 20 µM.

With Clc1ccc(CSC(Cn2ccnc2)c2ccc(Cl)cc2Cl)cc1 (stereo unspecified) [SULCONAZOLE] the IC50 was > 20 µM and the IC50 (read-out: pIC50 (converted)) was > 20 µM.

With Nc1ccc(S(=O)(=O)NC(=O)c2ccccc2)cc1 [SULFABENZAMIDE] the IC50 was > 20 µM and the IC50 (read-out: pIC50 (converted)) was > 20 µM.

With NC(=O)NS(=O)(=O)c1ccc(N)cc1 [SULFACARBAMIDE] the IC50 was > 20 µM and the IC50 (read-out: pIC50 (converted)) was > 20 µM.

With CC(=O)NS(=O)(=O)c1ccc(N)cc1 [SULFACETAMIDE] the IC50 was > 20 µM and the IC50 (read-out: pIC50 (converted)) was > 20 µM.

Nc1ccc(S(=O)(=O)Nc2ccc(Cl)nn2)cc1 [SULFACHLORPYRIDAZINE] was tested, and the IC50 was > 20 µM and the IC50 (read-out: pIC50 (converted)) was > 20 µM.

In the case of CCn1ccc(NS(=O)(=O)c2ccc(N)cc2)nc1=O [SULFACYTINE], the IC50 is reported as > 20 µM and the IC50 (read-out: pIC50 (converted)) is reported as > 20 µM.
